The record followed here is patent US9822128B1, “Substituted spirooxindoles” (KING SAUD UNIVERSITY, priority 2017, dated 2017).

SMILES strings stand for the structures. Like-named read-outs stand apart in the source and are kept apart here.

One experiment concerns HCT-116. The experiment in a line: MTT cytotoxicity assay, colon cancer cells. The class given is cell-based, human. Particulars: for SI: Selectivity Index from IC50 normal (VERO-B) and IC50 cancer (HCT-116). As for the experimental part: (§1) The cytotoxic activity of the compounds was tested against different mammalian cancer cells, prostate carcinoma cells (PC-3), hepatocellular carcinoma (HepG2) and colon cancer cells (HCT-116) and against African green monkey kidney cell line (Vero-B). The cell lines were obtained from American Type Culture Collection (ATCC). The cells were cultivated at 37° C. and 10% CO2 in DMEM (Lonza, 12-604F) medium supplemented with 10% fetal bovine serum (FBS, Lonza, Cat. No. 14-801E), 100 IU/ml penicillin and 100 μg/ml streptomycin (Lonza, 17-602E). Cisplatin (cis-diamineplatinum (II) dichloride) was used as a positive control and was obtained from Sigma then dissolved in 0.9% saline then stored as 8 mM stock solution at −20° C. The synthesized compounds were solubilized in DMSO and stored at −20° C. 0.5% crystal violet was prepared in Methanol and was used to stain the viable cells (Feoktistova, Geserick et al. 2016). Crystal violet binds to proteins and DNA in the adherent and viable cells so the stain is an indicator for the viability of the treated cells. The viability of the cells were quantified by using MTT reagent (3-(4,5-dimethylthiazol-2-yl)-2,5-diphenyl tetrazolium bromide), which measure the activity of mitochondrial dehydrogenase in the viable cells (Slater, Sawyer et al. 1963, Mosmann 1983).
(§2) Cytotoxicity was further assayed as follows. The cells were seeded in 96-well plate as 5*10^4 cells/mL (100 μL/well). A serial dilutions of tested compounds or cisplatin (100, 30, 10, 3.3, 1.1 or 0.37 μM) was added after overnight incubation of the cells at 37° C. and 5% CO2. DMSO was used as a control (0.1%). The cells were incubated for 48 hrs. After that, 15 μl of MTT (5 mg/mL PBS) was added to each well and incubated for another 4 hours. The formazan crystals were solubilized by 100 μL acidified SDS solution (10% SDS/0.01 M HCl). The absorbance was measured after 14 hours of incubation at 37° C. and 5% CO2 at 570 nm by Biotech plate reader. Each experiment was repeated three times and standard deviation was calculated (±). IC50% was calculated as the concentration that cause 50% inhibition for cell growth. The growth of the cells were monitored and the images were acquired by Gx microscopes (GXMGXD202 Inverted Microscope) (10× Eyepiece) after staining with crystal violet.
A general note: Tetrazolium assays rely on reduction of a dye to a coloured formazan, in cell work by metabolically active cells.

For a further experiment, the system named is HepG2. Kind of experiment: MTT cytotoxicity assay, hepatocellular carcinoma cells. The class given is cell-based, human. The conditions noted are these: for IC50: Homo sapiens, HepG2, MTT, 48 hrs incubation; for SI: Selectivity Index from IC50 normal (VERO-B) and IC50 cancer (HepG2). On the procedure:
as §1, §2

The next experiment has as its system Vero-B. The experiment in a line: MTT cytotoxicity assay, normal kidney cell line. The experiment is classed as cell-based, African green monkey. The conditions noted are these: Chlorocebus sabaeus, Vero B, read-out: VERO-B (IC50% μM). As for the experimental part:
as §1, §2

[1] abbreviates: Homo sapiens, HCT-116, MTT, 48 hrs incubation, read-out: HCT-116 (IC50% μM).
The mark [2] stands for this setting: Homo sapiens, HCT-116, MTT, 48 hrs incubation, read-out: HCT-116 (IC50% μg/ml).
Setting [3] is: Table 1, MTT, 48 hrs incubation.
The mark [4] stands for this setting: Homo sapiens, HCT-116, 48 h, read-out: HCT-116 (IC50% μM), MTT, 48 hrs incubation.
Where [5] appears, read: Homo sapiens, HCT-116, 48 h, read-out: HCT-116 (IC50% μg/ml), MTT, 48 hrs incubation.
[6] abbreviates: read-out: HCT-116 (IC50% μM), MTT, 48 hrs incubation.

Consider `O=C(/C=C/c1ccc(Br)cc1)[C@H]1[C@H](c2ccc(Br)cc2)[C@H]2CSCN2[C@]12C(=O)Nc1ccccc12` [Compound 4f, (3R,6′S,7′R,7a′S)-7′-(4-bromophenyl)-6′-((E)-3-(4-bromophenyl)acryloyl)-1′,6′,7′,7a′-tetrahydro-3′H-spiro[indoline-3,5′-pyrrolo[1,2-c]thiazol]-2-one], for which the IC50 with HCT-116 (setting [1]) is 3 ± 0.5 µM; in the experiment on HCT-116 (setting [2]), 1.8 µg/mL; in the experiment with HepG2 (read-out: HepG2 (IC50% μM)) it was 0.8 ± 0.1 µM; in the experiment with HepG2 (read-out: HepG2 (IC50% μg/ml)), 0.5 µg/mL; in the experiment on Vero-B (setting [3]) it was 3 µM. For the same compound, the results for the SI with HCT-116 and with HepG2 were 1 and 3.75, respectively.
Regarding `O=C(/C=C/c1cccc([N+](=O)[O-])c1)[C@H]1[C@H](c2cccc([N+](=O)[O-])c2)[C@H]2CSCN2[C@]12C(=O)Nc1ccccc12` [Compound 4g], the IC50 came to 2.5 ± 0.2 µM in the experiment on HCT-116 (setting [4]), 1.4 µg/mL in the experiment on HCT-116 (setting [5]) and 2.5 µM with Vero-B (48 h). The same compound displayed an SI with HCT-116 of 1.
Consider `O=C(/C=C/c1cccs1)[C@H]1[C@H](c2cccs2)[C@H]2CSCN2[C@]12C(=O)Nc1ccccc12` [Compound 4j, (3R,6′S,7′S,7a′S)-7′-(thiophen-2-yl)-6′-((E)-3-(thiophen-2-yl)acryloyl)-1′,6′,7′,7a′-tetrahydro-3′H-spiro[indoline-3,5′-pyrrolo[1,2-c]thiazol]-2-one], for which the IC50 is not below 10 µM in the experiment with HCT-116 (setting [4]), 6.7 µg/mL in the experiment on HCT-116 (setting [5]), 14.5 ± 1.5 µM with HCT-116 (setting [6]) and 18 µM with Vero-B (48 h). In addition, in the experiment with HCT-116, the SI stood at 1.241.
For `Cc1ccc(/C=C/C(=O)[C@H]2[C@H](c3ccc(C)cc3)[C@H]3CSCN3[C@]23C(=O)Nc2ccccc23)cc1` [Compound 4b, (3R,6′S,7′R,7a′S)-7′-(p-tolyl)-6′-((E)-3-(p-tolyl)acryloyl)-1′,6′,7′,7a′-tetrahydro-3′H-spiro[indoline-3,5′-pyrrolo[1,2-c]thiazol]-2-one], the IC50 came to 8 ± 1.2 µM with HCT-116 (setting [1]); 3.8 µg/mL with HCT-116 (setting [2]); 3.57 ± 0.5 µM with HepG2 (read-out: HepG2 (IC50% μM)); 1.7 µg/mL with HepG2 (read-out: HepG2 (IC50% μg/ml)); 11.8 µM in the experiment with Vero-B (setting [3]). For the same compound, the SI in the experiment with HCT-116 worked out at 1.475; in the experiment on HepG2 it was 3.305.
Turning to `O=C(/C=C/c1c(Cl)cccc1Cl)[C@H]1[C@H](c2c(Cl)cccc2Cl)[C@H]2CSCN2[C@]12C(=O)Nc1ccccc12` [Compound 4e, (3R,6′S,7′R,7a′S)-7′-(2,6-dichlorophenyl)-6′-((E)-3-(2,6-dichlorophenyl)acryloyl)-1′,6′,7′,7a′-tetrahydro-3′H-spiro[indoline-3,5′-pyrrolo[1,2-c]thiazol]-2-one], the IC50 with HCT-116 (setting [1]) was 3 ± 0.3 µM; with HCT-116 (setting [2]), 1.8 µg/mL; in the experiment on HepG2 (read-out: HepG2 (IC50% μM)) it was 1 ± 0.3 µM; with HepG2 (read-out: HepG2 (IC50% μg/ml)), 0.6 µg/mL; in the experiment with Vero-B (setting [3]) it was 3 µM. Also, the SI in the experiment on HCT-116 turned out to be 1; with HepG2, 3.
Consider `COc1ccc(/C=C/C(=O)[C@H]2[C@H](c3ccc(OC)cc3)[C@H]3CSCN3[C@]23C(=O)Nc2ccccc23)cc1` [Compound 4h, (3R,6′S,7′R,7a′S)-7′-(4-methoxyphenyl)-6′-((E)-3-(4-methoxyphenyl)acryloyl)-1′,6′,7′,7a′-tetrahydro-3′H-spiro[indoline-3,5′-pyrrolo[1,2-c]thiazol]-2-one], for which the IC50 with HCT-116 (setting [1]) is 7 ± 0.9 µM; in the experiment on HCT-116 (setting [2]), 3.6 µg/mL; in the experiment on HepG2 (read-out: HepG2 (IC50% μM)) it was 2.25 ± 0.2 µM; in the experiment with HepG2 (read-out: HepG2 (IC50% μg/ml)) it was 1.1 µg/mL; in the experiment with Vero-B (setting [3]), 7.5 µM. Also, the SI turned out to be 1.071 with HCT-116 and 3.333 in the experiment on HepG2.
Consider `O=C(/C=C/c1ccco1)[C@H]1[C@H](c2ccco2)[C@H]2CSCN2[C@]12C(=O)Nc1ccccc12` [Compound 4k, (3R,6′S,7′S,7a′S)-7′-(furan-2-yl)-6′-((E)-3-(furan-2-yl)acryloyl)-1′,6′,7′,7a′-tetrahydro-3′H-spiro[indoline-3,5′-pyrrolo[1,2-c]thiazol]-2-one], for which the IC50 is not below 10 µM in the experiment on HCT-116 (setting [4]), 10.1 µg/mL with HCT-116 (setting [5]), 19 ± 2 µM with HCT-116 (setting [6]) and 25 µM with Vero-B (48 h). Further, the SI in the experiment with HCT-116 is listed as 1.316.
